Key:
[1] = system: rat retinal cell line, E1A-NR.3; assay: 3-aminopropanal neurotoxicity assay, LDH release, retinal cell cultures; type: cell-based; settings: for % Neuroprotection (600 μM): compound 600 μM, 24-hour incubation with 400 μM 3-aminopropanal in retinal ganglion cells
Method: The rat retinal cell line, E1A-NR.3, was grown in DMEM, containing 10% FBS, in 75 cm2 flasks. […] Media was collected and assayed for LDH using the Roche assay kit. Rabbit muscle LDH was used for the standard curve. Drug treatments of aldehyde sequestering agents were as co-treatments or delayed administration of about 0.5 to about 3 hours. All drugs were dissolved in PBS.

[2] = system: Male Sprague Dawley rats; assay: Trimethyltin (TMT) model, KCl-evoked glutamate release from hippocampal slices; type: in vivo, rat; settings: AK-10 25 mg/kg, sc daily for 17 days, starting 24 hours after TMT 8 mg/kg, FIG. 3
Method: Male Sprague Dawley rats (200 g; Harlan) were administered […], sc trimethyltin (TMT) and housed individually as a result of the aggressive behavior induced by the neurotoxicant. The day following the TMT treatment, rats were started on a once daily dosing for 17 days with vehicle or AK-10 (25 mg/kg, sc) in PBS. Rats were decapitated on day 19 and the hippocampi isolated and placed in chilled Hanks Balanced Salt Solution containing 20 mM HEPES (HBSS-HEPES, 4° C.) for release experiments.
Chilled tissues were cut into 300 μm slices. A single slice was incubated in 2 ml of HBSS-HEPES in 12-well culture plates at 37° C. for 30 min. The media was discarded and the slice incubated for 2-10 min periods, each with fresh media. Next, the slices were incubated for 5 min after which the media was isolated for amino acid analyses (Pre-sample), followed by a 5 min incubation in which 50 mM KCl was added to evoke neurotransmitter release from the slices (KCl sample). Next, a final 5 min incubation in HBSS-HEPES was collected (Post sample). […]
For the GC-MS analysis of glutamate, an Agilent bench-top GC-MSD (HP6890/MSD5973) system was autotuned (41, 267 and 599) under PCI conditions with methane as the reagent gas. […] The [MH]+ ions that were monitored were 332 and 338 for endogenous GABA and its internal standard, and 490 and 495 for endogenous glutamate and its internal standard. […]

[3] = system: Methemoglobin; assay: Methemoglobinemia in the rat; type: in vivo; settings: for Methemoglobin (%): 50 mg/kg, sc, 1 hr
Excerpt: Hydroxylamines are efficacious aldehyde sequestering agents but also may induce methemaglobinemia. Methemoglobinemia is the condition caused by the oxidation of hemoglobin into methemoglobin or a deficiency in the ability of the body to reduce methemoglobin to hemoglobin.
Table 2 sets forth a comparison of the percentage of hemoglobin that is in the form of methemoglobin under control conditions, in the presence of aldehyde sequestering agent, N-enzylhydroxylamine (NBHA) and the hydroxamic acid, AK-10.

[4] = system: rat retinal cell line, E1A-NR.3; settings: co-treatments and delayed addition; reference (1); cited from earlier work

Row | SMILES | % Neuroprotection (600 μM) [1] | protection of retinal cells from 3-aminopropanal toxicity [4] | further results
1 | CC(C)CC(N)C(=O)NO (centres unmarked) [AK-10, 2-amino-N-hydroxy-4-methylpentamide] | 100% | – | delay of treatment after 3-AP still giving reduced 24-hour LDH levels ([1]; 300 μM AK-10, delayed co-treatment 0.5 to 3 hours, 400 μM 3-AP, FIG. 2): at least 3 hours; activity in the model of aldehyde-induced cell death ([1]; Table 1, FIG. 1, FIG. 2): most efficacious analog; 24-hour LDH level versus cells exposed to 3-AP alone ([1]; co-treatment, 150 μM, 300 μM and 600 μM AK-10 with 400 μM 3-AP, FIG. 1): significantly reduce; protection in the rat trimethyltin model of CA3 glutamatergic cell death (KCl-evoked glutamate release as index of CA3 neuronal loss) [2]: prevention of TMT neurotoxicity; Methemoglobin (%) [3]: 2.2 ± 0.3%; methemoglobinemia ([3]; N-benzylhydroxylamine as positive control): lack of methemoglobinemia
2 | CC(=O)NC(CC(C)C)C(=O)NO (centres unmarked) [AK-12, 2-acetoamido-N-hydroxy-4-methylpentamide] | 10% | – | melting point: 47 to 49 °C
3 | CCCC(N)C(=O)NO (centres unmarked) [AK-25, 2-amino-N-hydroxypentamide] | 28% | – | –
4 | CC(C)C(N)CC(=O)NO (centres unmarked) [AK-26, 3-amino-N-hydroxy-4-methylpentamide] | 58% | – | –
5 | CC(N)C(=O)NO (centres unmarked) [AK-27, 2-amino-N-hydroxypropanamide] | 6% | – | –
6 | CCC(N)C(=O)NO (centres unmarked) [AK-28, 2-amino-N-hydroxybutanamide] | 39% | – | –
7 | CCC(C)C(N)C(=O)NO (centres unmarked) [AK-29, 2-amino-N-hydroxy-3-methylpentamide] | 4% | – | –
8 | CC(S)C(=O)NCC(=O)O (centres unmarked) [N-(2-mercaptopropionyl)-glycine] | – | active | –
9 | ONCc1ccccc1 [NBHA, N-benzylhydroxylamine, reference compound] | – | protected retinal cells | Methemoglobin (%) [3]: 22.6 ± 3.1%
10 | O=C1O[C@H]([C@@H](O)CO)C(O)=C1O [ascorbic acid, reference compound] | – | – | protection in the rat trimethyltin model of CA3 glutamatergic cell death (KCl-evoked glutamate release as index of CA3 neuronal loss) [2]: not
11 | ONC1CCCCC1 [cyclohexylhydroxylamine] | – | protected retinal cells | –
12 | CC(C)(C)NO [t-butylhydroxylamine] | – | protected retinal cells | –
